Results from patent US6613718B2, “Aryl ether derivatives and processes for their preparation and herbicidal and desiccant compositions containing them” (Ishihara Sangyo Kaisha, Ltd., priority 2001, dated 2003).

Columns and labels:
[1] = system: large crabgrass (Digitaria sanguinalis, DIGSA); experiment: Pre-emerge greenhouse herbicide activity screening, phytotoxicity rating; format: in vivo; details: 14 days after application
How it was run: (§1)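 Track-sprayer application, nozzle 40-45 cm above soil or canopy; compound in acetone at 15 to 1000 g ai/ha. Visual 0–100 rating at 14 days after treatment.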

[2] = system: green foxtail (Setaria viridis, SETVI); experiment: as above; format: in vivo; details: 14 days after application
How it was run: as §1

[3] = system: velvetleaf (Abutilon theophrasti, ABUTH); experiment: as above; format: in vivo; details: 14 days after application
How it was run: as §1

[4] = system: common ragweed (Ambrosia artemisiifolia L., AMBEL); experiment: as above; format: in vivo; details: 14 days after application
How it was run: as §1

[5] = system: barnyardgrass (Echinochloa crus-galli, ECHCG); experiment: as above; format: in vivo; details: 14 days after application
How it was run: as §1

[6] = system: sicklepod (Cassia obtusifolia, CASOB); experiment: as above; format: in vivo; details: 14 days after application
How it was run: as §1

[7] = system: johnsongrass (Sorghum halepense, SORHA); experiment: as above; format: in vivo; details: 14 days after application
How it was run: as §1

[8] = system: redroot pigweed (Amaranthus retroflexus, AMARE); experiment: as above; format: in vivo; details: 14 days after application
How it was run: as §1

[9] = system: ivyleaf morningglory (Ipomoea hederacea, IPOHE); experiment: as above; format: in vivo; details: 14 days after application
How it was run: as §1

[10] = system: lambsquarters (Chenopodium album, CHEAL); experiment: as above; format: in vivo; details: 14 days after application
How it was run: as §1

[11] = system: large crabgrass (Digitaria sanguinalis, DIGSA); experiment: Post-emerge greenhouse herbicide activity screening, phytotoxicity rating; format: in vivo; details: 14 days after application
How it was run: as §1

[12] = system: green foxtail (Setaria viridis, SETVI); experiment: as above; format: in vivo
How it was run: as §1

[13] = system: velvetleaf (Abutilon theophrasti, ABUTH); experiment: as above; format: in vivo; details: 14 days after application
How it was run: as §1

[14] = system: common ragweed (Ambrosia artemisiifolia L., AMBEL); experiment: as above; format: in vivo
How it was run: as §1

[15] = system: barnyardgrass (Echinochloa crus-galli, ECHCG); experiment: as above; format: in vivo; details: 14 days after application
How it was run: as §1

[16] = system: sicklepod (Cassia obtusifolia, CASOB); experiment: as above; format: in vivo
How it was run: as §1

[17] = system: johnsongrass (Sorghum halepense, SORHA); experiment: as above; format: in vivo; details: 14 days after application
How it was run: as §1

[18] = system: redroot pigweed (Amaranthus retroflexus, AMARE); experiment: as above; format: in vivo
How it was run: as §1

[19] = system: ivyleaf morningglory (Ipomoea hederacea, IPOHE); experiment: as above; format: in vivo; details: 14 days after application
How it was run: as §1

[20] = system: lambsquarters (Chenopodium album, CHEAL); experiment: as above; format: in vivo
How it was run: as §1

[21] = system: soybean (Glycine max L., var. Pella 86, SOY); experiment: Post-emerge greenhouse screening, crop safety (phytotoxicity rating); format: in vivo; details: 14 days after application
How it was run: as §1

[22] = system: upland rice (Oryza sp., var.Tebonnet, RICE); experiment: as above; format: in vivo; details: 14 days after application
How it was run: as §1

[23] = system: field corn (Zea mays L., var. Dekalb 535, CORN); experiment: Post-emerge greenhouse screening, crop safety / corn selectivity (phytotoxicity rating); format: in vivo; details: 14 days after application
How it was run: as §1

[24] = as above; format: in vivo, Zea mays L.; details: Zea mays (field corn), in vivo, 62.5 g ai/ha
How it was run: as §1

[25] = system: field corn (Zea mays L., var. Dekalb 535, CORN); experiment: Pre-emerge greenhouse screening, crop safety (phytotoxicity rating); format: in vivo; details: 14 days after application
How it was run: as §1

[26] = system: soybean (Glycine max L., var. Pella 86, SOY); experiment: as above; format: in vivo; details: 14 days after application
How it was run: as §1

[27] = system: upland rice (Oryza sp., var.Tebonnet, RICE); experiment: as above; format: in vivo; details: 14 days after application
How it was run: as §1

[28] = 125 g ai/ha, 14 days after application
[29] = 250 g ai/ha, 14 days after application

## Cn1nc(-c2cc(Oc3ncccn3)c(Cl)cc2F)c(Cl)c1[S+]([O-])C(F)F (stereo not drawn) [Compound 5-1]
[1]; 125 g ai/ha
  DIGSA phytotoxicity rating (0-100 scale): 100
[1]; 250 g ai/ha
  DIGSA phytotoxicity rating (0-100 scale): 100
[2]; 125 g ai/ha
  SETVI phytotoxicity rating (0-100 scale): 100
[2]; 250 g ai/ha
  SETVI phytotoxicity rating (0-100 scale): 100
[3]; 125 g ai/ha
  ABUTH phytotoxicity rating (0-100 scale): 99
[3]; 250 g ai/ha
  ABUTH phytotoxicity rating (0-100 scale): 100
[4]; 125 g ai/ha
  AMBEL phytotoxicity rating (0-100 scale): 75
[4]; 250 g ai/ha
  AMBEL phytotoxicity rating (0-100 scale): 100
[5]; 125 g ai/ha
  ECHCG phytotoxicity rating (0-100 scale): 100
[5]; 250 g ai/ha
  ECHCG phytotoxicity rating (0-100 scale): 100
[6]; 125 g ai/ha
  CASOB phytotoxicity rating (0-100 scale): 60
[6]; 250 g ai/ha
  CASOB phytotoxicity rating (0-100 scale): 90
[7]; 125 g ai/ha
  SORHA phytotoxicity rating (0-100 scale): 100
[7]; 250 g ai/ha
  SORHA phytotoxicity rating (0-100 scale): 100
[8]; 125 g ai/ha
  AMARE phytotoxicity rating (0-100 scale): 100
[8]; 250 g ai/ha
  AMARE phytotoxicity rating (0-100 scale): 100
[9]; 125 g ai/ha
  IPOHE phytotoxicity rating (0-100 scale): 99
[9]; 250 g ai/ha
  IPOHE phytotoxicity rating (0-100 scale): 100
[10]; 125 g ai/ha
  CHEAL phytotoxicity rating (0-100 scale): 100
[10]; 250 g ai/ha
  CHEAL phytotoxicity rating (0-100 scale): 100
[11]; 125 g ai/ha
  DIGSA phytotoxicity rating (0-100 scale): 50
[11]; 250 g ai/ha
  DIGSA phytotoxicity rating (0-100 scale): 55
[12]; 31.3 g ai/ha
  SETVI phytotoxicity rating (0-100 scale): 50
[12]; 62.5 g ai/ha
  SETVI phytotoxicity rating (0-100 scale): 60
[12]; [28]
  SETVI phytotoxicity rating (0-100 scale): 95
[12]; [29]
  SETVI phytotoxicity rating (0-100 scale): 95
[13]; 125 g ai/ha
  ABUTH phytotoxicity rating (0-100 scale): 100
[13]; 250 g ai/ha
  ABUTH phytotoxicity rating (0-100 scale): 100
[14]; 31.3 g ai/ha
  AMBEL phytotoxicity rating (0-100 scale): 50
[14]; 62.5 g ai/ha
  AMBEL phytotoxicity rating (0-100 scale): 60
[14]; [28]
  AMBEL phytotoxicity rating (0-100 scale): 65
[14]; [29]
  AMBEL phytotoxicity rating (0-100 scale): 75
[15]; 125 g ai/ha
  ECHCG phytotoxicity rating (0-100 scale): 75
[15]; 250 g ai/ha
  ECHCG phytotoxicity rating (0-100 scale): 65
[16]; 31.3 g ai/ha
  CASOB phytotoxicity rating (0-100 scale): 35
[16]; 62.5 g ai/ha
  CASOB phytotoxicity rating (0-100 scale): 85
[16]; [28]
  CASOB phytotoxicity rating (0-100 scale): 99
[16]; [29]
  CASOB phytotoxicity rating (0-100 scale): 100
[17]; 125 g ai/ha
  SORHA phytotoxicity rating (0-100 scale): 75
[17]; 250 g ai/ha
  SORHA phytotoxicity rating (0-100 scale): 75
[18]; 31.3 g ai/ha
  AMARE phytotoxicity rating (0-100 scale): 98
[18]; 62.5 g ai/ha
  AMARE phytotoxicity rating (0-100 scale): 100
[18]; [28]
  AMARE phytotoxicity rating (0-100 scale): 100
[18]; [29]
  AMARE phytotoxicity rating (0-100 scale): 100
[19]; 125 g ai/ha
  IPOHE phytotoxicity rating (0-100 scale): 100
[19]; 250 g ai/ha
  IPOHE phytotoxicity rating (0-100 scale): 100
[20]; 31.3 g ai/ha
  CHEAL phytotoxicity rating (0-100 scale): 100
[20]; 62.5 g ai/ha
  CHEAL phytotoxicity rating (0-100 scale): 100
[20]; [28]
  CHEAL phytotoxicity rating (0-100 scale): 100
[20]; [29]
  CHEAL phytotoxicity rating (0-100 scale): 100
[21]; 125 g ai/ha
  SOY crop damage, phytotoxicity rating (0-100 scale): 65
[21]; 250 g ai/ha
  SOY crop damage, phytotoxicity rating (0-100 scale): 55
[22]; 125 g ai/ha
  RICE crop damage, phytotoxicity rating (0-100 scale): 50
[22]; 250 g ai/ha
  RICE crop damage, phytotoxicity rating (0-100 scale): 55
[23]; 125 g ai/ha
  CORN crop damage, phytotoxicity rating (0-100 scale): 7
[23]; 250 g ai/ha
  CORN crop damage, phytotoxicity rating (0-100 scale): 8
[24]
  corn phytotoxicity rating (0-100 scale) at 14 days: 5
[25]; 125 g ai/ha
  CORN crop damage, phytotoxicity rating (0-100 scale): 40
[25]; 250 g ai/ha
  CORN crop damage, phytotoxicity rating (0-100 scale): 50
[26]; 125 g ai/ha
  SOY crop damage, phytotoxicity rating (0-100 scale): 0
[26]; 250 g ai/ha
  SOY crop damage, phytotoxicity rating (0-100 scale): 65
[27]; 125 g ai/ha
  RICE crop damage, phytotoxicity rating (0-100 scale): 55
[27]; 250 g ai/ha
  RICE crop damage, phytotoxicity rating (0-100 scale): 80
